In patent US20250295796A1, “CELL PENETRATING POLYPEPTIDES (CPPS) AND THEIR USE IN HUMAN THERAPY” (RDP PHARMA AG, priority 2021, published 2025):
One block for each molecule: values may come before it.

Experiments:
[1] = system: IMR32 human neuroblastoma xenograft; assay: IMR32 human neuroblastoma xenograft model; format: in vivo, mice; conditions: single agent, q14dx2; CROMOC36 32 mg/Kg s.c.; doxorubicin 8 mg/kg i.v.
Source text: FIG. 11: IMR32 s.c. implanted. Treatment on xenograft mice with advanced tumors (volume >50 mm^3). Variation in tumor volume expressed as percentage with respect to initial volume (day 0; designated as 100%). Final measurements for vehicle (PBS) and Doxorubicin groups were taken on day 42. For the remaining groups, final measurements were taken on day 63, the termination day of the experiment. Growth reduction compared to controls on day 42 (p<0.01).
The aim of this study was to assess the in vivo efficacy of CROMOC36 on a IMR32 human neuroblastoma xenograft model. CROMOC36 was administered subcutaneously (s.c.) at intervals of two weeks (q14dx2) at two different doses (32 mg/Kg) and also in combination with doxorubicin administered intravenously (i.v.) (32/kg CROMOC36+4+4 mg/Kg doxorubicin, s.c and i.v., q14dx2). Doxorubicin was also used alone as a reference compound (8 mg/kg, i.v., q14dx2). Vehicle was PBS.

[2] = system: M5076 ovarian reticulum sarcoma tumor cell line; assay: M5076 artificial hepatic metastasis model, i.v. route; conditions: CROMOC36 16 mg/kg i.v. q7dx3; Doxorubicin 6 mg/kg q4dx3 (MTD)
[3] = system: human pancreatic tumor cell lines; assay: Propidium iodide based monolayer proliferation assay, panel of 13 human pancreatic tumor cell lines; conditions: Homo sapiens, 96 h; 13 pancreatic cell lines, four days treatment; read-out: geomean IC50
Method: (§1) Monolayer Assay Propidium Iodid (PI). Cells were harvested from exponential phase cultures, counted and depending on the cell line 3.000 to 20.000 cells were plated in 96-well flat-bottom microtiter plates After a 24 h recovery period to allow cells to resume exponential growth, 10 μl of culture medium (four control wells/plate) or culture medium with the test compound were added by a liquid handling robotic system and treatment continued for four days. Compounds were applied in half-log increments at 10 concentrations in duplicate. Three independent experiments were performed. Cells were then washed with 200 μl PBS to remove dead cells followed by addition of 200 μl of a solution containing 7 μg/ml propidium iodide (PI) and 0.1% (v/v) Triton X-100. After an incubation period of 1-2 h at room temperature, fluorescence (FU) was measured using the Cytofluor 4000 microplate reader (excitation λ=530 nm, emission λ=620 nm) to quantify the amount of attached viable cells. Concentrations required for 50% inhibition of cell growth (IC50) were calculated by non-linear regression (log[conc. of inhibitor]versus response (% T/C)) using the analysis software GraphPad Prism®, Prism 5 for windows, version 5.01 (GraphPad Software Inc., CA).
CROMOC36—in vitro activity Human pancreatic carcinoma cell lines. The aim of this study was to investigate the antitumor activity of CROMOC36 in vitro on a panel of 13 human pancreatic tumor cell lines. Antitumor activity was assessed after four days of CROMOC36 treatment using a propidium iodide based monolayer proliferation assay. Up to four experiments were performed in each cell line, testing CROMOC36 at ten concentrations in half-log increments up to 1 μM. Taxol, an antitumor agent commonly used for the treatment of pancreatic cancer, was used as a reference compound and tested in half-log steps up to 0.3 μM.

HEPG2 = assay: Monolayer assay, 96h treatment, HEPG2; format: cell-based, human; conditions: Homo sapiens; HEPG2, 96h treatment
Method: as §1
(§2) CROMOC36—in vitro activity Human hepatocellular carcinoma cell lines IC50 values of CROMOC36 and Sorafenib, 96h treatment. […]

LIXF 575L = assay: Monolayer assay, 96h treatment, LIXF 575L; format: cell-based, human; conditions: Homo sapiens
Method: as §1, §2

HEP3B = assay: Monolayer assay, 96h treatment, HEP3B; format: cell-based, human; conditions: Homo sapiens
Method: as §1, §2

[4] = system: Human hepatocellular carcinoma cell lines; assay: Monolayer assay, human hepatocellular carcinoma cell lines, 96h treatment (geomean of three lines); format: cell-based; conditions: Homo sapiens; three HCC cell lines, 96h treatment
Method: as §1
CROMOC36—in vitro activity Human hepatocellular carcinoma cell lines IC50 values of CROMOC36 and Sorafenib, 96h treatment. […] The individual results for CROMOC36 are included in FIG. 24. […] The individual results for Sorafenib are included in (FIG. 24).

[5] = system: HCT116 human colon carcinoma xenograft with null p53 (HCT116 p53−/−); assay: HCT116 p53-/- xenograft, single agent and combination with cisplatin or vincristine; format: in vivo, female athymic nude mice; conditions: for % TGD (tumor growth delay) / time to study endpoint (TTE): endpoint tumor volume of 1000 mm^3, CROMOC36 as single agent or in combination; for time to study endpoint (TTE): control Day 23; for tumor growth inhibition: single-agent reference, q7dx5 (CDDP 4 mg/kg, VCR 2 mg/kg)
Method: A study was conducted to evaluate the efficacy and tolerability of CROMOC36 against an HCT116 human colon carcinoma xenograft model with null p53 (HCT116 p53−/−) in female athymic nude mice. CROMOC36 was administered subcutaneously (s.c.) three times at intervals of two weeks (q14dx3) as a single agent or in combination with cisplatin (CDDP) at 4 mg/kg or vincristine (VCR) at 2 mg/kg which were both administered five times at intervals of one week (q7dx5). CROMOC36 was tested at 32 mg/kg or using a decreasing dosage of 32-16-16 mg/kg. CDDP and VCR were also administered as single agents to allow comparison of the efficacy of CROMOC36 with commonly used anticancer drugs. The dose and schedule of CDDP and VCR treatments remained the same when tested as single agents or in combination with CROMOC36. […] Efficacy was also evaluated by measuring the tumor growth delay (TGD) and the number of regression responses.

[6] = system: murine Lewis lung carcinoma; assay: Lewis lung carcinoma (LLC) model, primary tumor growth and metastasis
Method: The efficacy of CROMOC36 on the Lewis lung carcinoma (LLC) model, was selected for testing the activity of CROMOC36 against primary tumor growth and metastasis formation. CROMOC36 was tested as a single agent and in combination with Cyclophosphamide (CYPP). In addition, single-agent CYPP was used as a reference compound, allowing comparison of the efficacy of CROMOC36 with a commonly used antitumor agent (summarized in FIG. 9).

Osteosarcoma (U2OS) cell = assay: Monolayer Sulphorhodamine B (SRB) staining assay, 72 hours, preCROMOC-DDM fusion molecules; format: cell-based, human; conditions: CPP fused to preCROMOC
Method: Cells were harvested from exponential phase cultures, and depending on the cell line 10.000 to 30.000 cells were plated in 96-well flat-bottom microtiter plates. After a 24 h recovery period to allow cells to resume exponential growth, supernatant was discarded and 100 μl of culture medium (eight control wells/plate) or culture medium with the test compound were added by a liquid handling robotic system (Microlab® Starlet, Hamilton) and treatment continued for 72 hrs. Compounds were applied at 9 concentrations eight wells/concentration). At least three independent experiments were performed. For SRB staining, cells were fixed with SRB01 for 1h at 4° C. (final concentration of TCA=10%) washed with a plate washer (Hydroflex, Tecan©) for five times with H2O; and stained with 100 μl of SRB02 at room temperature for 10 min following 4 washes in SRB03 and finally 100 μl of developer solution SRB04 for 5 minutes with shaking. Optical density was assessed using a plate-reader (Sunrise, Tecan©) at 540 nm. Concentrations required for 50% inhibition of cell growth (IC50) were calculated by non-linear regression (log[conc. of inhibitor] versus response (% T/C)) using the analysis software GraphPad Prism®, Prism 5 for windows, version 5.01 (GraphPad Software Inc., CA). (SRB Buffers FIG. 25).

[7] = system: human colon carcinoma with null p53 (HCT116 p53−/−) xenograft; assay: HCT116 p53-/- xenograft, CROMOC36 versus nuclease impaired CROMOC60; format: in vivo, mouse; conditions: s.c. 4 mg/kg on days 0, 1, 2, 3, 6, 7, 8, 9, 10, 20, 22, 24
Method: FIG. 7: HCT116 p53−/− human colon carcinoma xenograft. Treatment on advanced tumors (volume >50 mm^3). Dose: CROMOC36 4 mg/kg; CROMOC60 4 mg/kg. Treatment: s.c. administration on day 0, 1, 2, 3, 6, 7, 8, 9, 10, 20, 22, 24.
A study was conducted to test the antitumor efficacy of CROMOC36 on an advanced human colon carcinoma with null p53 (HCT116 p53−/−) xenograft model and compare it to a vehicle or a nuclease impaired version CROMOC60 treatment group. CROMOC60 is no more catalytically active as a nuclease but is able to be transported to the nucleus of a cell. This study was also designed to proof that the active principle of the tumor growth inhibiting activity of CROMOC is the nuclease activity in vivo. CROMOC36 and CROMOC60 were both administered subcutaneously (s.c.) at 4 mg/kg dose on the days 0, 1, 2, 3, 6, 7, 8, 9, 10, 20, 22, 24. […] This also proofs that CROMOC36 can serve as a valid DNA DSB reagent.

Molecule: COc1cccc2c1C(=O)c1c(O)c3c(c(O)c1C2=O)C[C@@](O)(C(=O)CO)C[C@@H]3O[C@H]1C[C@H](N)[C@H](O)[C@H](C)O1 [Doxorubicin, reference compound]
tumor growth inhibition (TGI) compared to controls [1]: 10%
% ILS (mean survival time versus control group) [2]: 32%

IC50 [3]: 0.00199 µM
Molecule: CC(=O)O[C@H]1C(=O)[C@@]2(C)[C@H]([C@H](OC(=O)c3ccccc3)[C@]3(O)C[C@H](OC(=O)[C@H](O)[C@@H](NC(=O)c4ccccc4)c4ccccc4)C(C)=C1C3(C)C)[C@]1(OC(C)=O)CO[C@@H]1C[C@@H]2O [Taxol, reference compound]

IC50 (HEPG2): 5.97 µM
IC50 (LIXF 575L): 6.07 µM
IC50 (HEP3B): 2.83 µM
IC50 [4]: 4.68 µM
Molecule: CNC(=O)c1cc(Oc2ccc(NC(=O)Nc3ccc(Cl)c(C(F)(F)F)c3)cc2)ccn1 [Sorafenib, reference compound]

Molecule: CC[C@]1(O)C[C@H]2CN(CCc3c([nH]c4ccccc34)[C@@](C(=O)OC)(c3cc4c(cc3OC)N(C=O)[C@H]3[C@@](O)(C(=O)OC)[C@H](OC(C)=O)[C@]5(CC)C=CCN6CC[C@]43[C@@H]65)C2)C1 [VCR, vincristine, reference compound]
% TGD (tumor growth delay) [5]: 52%
time to study endpoint (TTE) [5]: 35 days
tumor growth inhibition [5]: 45.4%

Molecule: O=P1(N(CCCl)CCCl)NCCCO1 (centres unmarked) [CYPP, Cyclophosphamide, reference compound]
inhibition of number of metastases ([6]; CYPP single agent, 180 mg/kg): 62%
tumor growth inhibition (TI), primary tumor ([6]; single agent, CROMOC36 s.c. q2dx5): 78.6%

Molecule: [NH2][Pt]([NH2])([Cl])[Cl] [CDDP, cisplatin, reference compound]
% TGD (tumor growth delay) [5]: 48%
time to study endpoint (TTE) [5]: 34 days
tumor growth inhibition [5]: 47.2%

Molecule: GNSGSGKKKKKGKGSGLGSGKKKDPLGSGLGSGKKKKKGKGSGLGSGKKKDPLGST (peptide, DDM36)
activity in the SRB assay compared with TAT, Pentratin, and Transportan (Osteosarcoma (U2OS) cell): orders of magnitude higher activity

B1: CROMOC60: nuclease impaired version; no more catalytically active as a nuclease but able to be transported to the nucleus (protein)
chain: MSHPDLNKLLELWPHIQEYQDLALKHGINDIFQDNGGKLLQVLLITGLTVLPGREGNDAVDNAGQEYELKSINIDLTAGFSTHHHMNPVIIAKYRQVPWIFAIYRGIAIEAIYRLEPKDLEFYYDKWERKWYSDGHKDINNPKIPVKYVMEHGTKIYGSGGSGGSSHPDLNKLLELWPHIQEYQDLALKHGINDIFQDNGGKLLQVLLITGLTVLPGREGNDAVDNAGQEYELKSINIDLTAGFSTHHHMNPVIIAKYRQVPWIFAIYRGIAIEAIYRLEPKDLEFYYDKWERKWYSDGHKDINNPKIPVKYVMEHGTKIYGNSGSGKKKKKGKGSGLGSGKKKDPLGSGLGSGKKKKKGKGSGLGSGKKKDPLGST
modifications: peptide, CROMOC60
progression of HCT116 p53−/− human colon carcinoma as compared to vehicle control [7]: not
